The target of this experiment is T1, PI3Kδ (p110δ/p85α) (Homo sapiens, UniProt O00329).
T1 construct: purchased Millipore (Bedford, Mass.)
As to the kind of experiment: PI3Kδ scintillation proximity assay. The following applies: 20 μM ATP, 4 nM PI3Kδ. It counts as biochemical. An excerpt: Example A: PI3Kδ Scintillation Proximity Assay
Materials: [γ-^33P]ATP (10 mCi/mL) was purchased from Perkin-Elmer (Waltham, Mass.). Lipid kinase substrate, D-myo-Phosphatidylinositol 4,5-bisphosphate (PtdIns(4,5)P2)D (+)-sn-1,2-di-O-octanoylglyceryl, 3-O-phospho linked (PIP2), CAS 204858-53-7, was purchased from Echelon Biosciences (Salt Lake City, Utah). PI3Kδ (p110δ/p85α) was purchased from Millipore (Bedford, Mass.). ATP, MgCl2, DTT, EDTA, MOPS and CHAPS were purchased from Sigma-Aldrich (St. Louis, Mo.). Wheat Germ Agglutinin (WGA) YSi SPA Scintillation Beads was purchased from GE healthcare life sciences (Piscataway, N.J.).
The kinase reaction was conducted in polystyrene 384-well matrix white plate from Thermo Fisher Scientific in a final volume of 25 μL. Inhibitors were first diluted serially in DMSO and added to the plate wells before the addition of other reaction components. The final concentration of DMSO in the assay was 0.5%. The PI3K assays were carried out at room temperature in 20 mM MOPS, pH 6.7, 10 mM MgCl2, 5 mM DTT and CHAPS 0.03%. Reactions were initiated by the addition of ATP, the final reaction mixture consisted of 20 μM PIP2,20 μM ATP, 0.2 μCi [γ-^33P] ATP, 4 nM PI3Kδ. Reactions were incubated for 210 minutes and terminated by the addition of 40 μL SPA beads suspended in quench buffer: 150 mM potassium phosphate pH 8.0, 20% glycerol. 25 mM EDTA, 400 µM ATP. The final concentration of SPA beads is 1.0 mg/mL. After the plate sealing, plates were shaken overnight at room temperature and centrifuged at 1800 rpm for 10 minutes, the radioactivity of the product was determined by scintillation counting on Topcount (Perkin-Elmer). IC50 determination was performed by fitting the curve of percent control activity versus the log of the inhibitor concentration using the GraphPad Prism 3.0 software.

pIC50: −log10 of the molar value. Structures can show the parent of a compound that is named as a salt. A value given as a limit tells only on which side of the number the result lay.

T1 sequence (O00329 whole entry, species assumed): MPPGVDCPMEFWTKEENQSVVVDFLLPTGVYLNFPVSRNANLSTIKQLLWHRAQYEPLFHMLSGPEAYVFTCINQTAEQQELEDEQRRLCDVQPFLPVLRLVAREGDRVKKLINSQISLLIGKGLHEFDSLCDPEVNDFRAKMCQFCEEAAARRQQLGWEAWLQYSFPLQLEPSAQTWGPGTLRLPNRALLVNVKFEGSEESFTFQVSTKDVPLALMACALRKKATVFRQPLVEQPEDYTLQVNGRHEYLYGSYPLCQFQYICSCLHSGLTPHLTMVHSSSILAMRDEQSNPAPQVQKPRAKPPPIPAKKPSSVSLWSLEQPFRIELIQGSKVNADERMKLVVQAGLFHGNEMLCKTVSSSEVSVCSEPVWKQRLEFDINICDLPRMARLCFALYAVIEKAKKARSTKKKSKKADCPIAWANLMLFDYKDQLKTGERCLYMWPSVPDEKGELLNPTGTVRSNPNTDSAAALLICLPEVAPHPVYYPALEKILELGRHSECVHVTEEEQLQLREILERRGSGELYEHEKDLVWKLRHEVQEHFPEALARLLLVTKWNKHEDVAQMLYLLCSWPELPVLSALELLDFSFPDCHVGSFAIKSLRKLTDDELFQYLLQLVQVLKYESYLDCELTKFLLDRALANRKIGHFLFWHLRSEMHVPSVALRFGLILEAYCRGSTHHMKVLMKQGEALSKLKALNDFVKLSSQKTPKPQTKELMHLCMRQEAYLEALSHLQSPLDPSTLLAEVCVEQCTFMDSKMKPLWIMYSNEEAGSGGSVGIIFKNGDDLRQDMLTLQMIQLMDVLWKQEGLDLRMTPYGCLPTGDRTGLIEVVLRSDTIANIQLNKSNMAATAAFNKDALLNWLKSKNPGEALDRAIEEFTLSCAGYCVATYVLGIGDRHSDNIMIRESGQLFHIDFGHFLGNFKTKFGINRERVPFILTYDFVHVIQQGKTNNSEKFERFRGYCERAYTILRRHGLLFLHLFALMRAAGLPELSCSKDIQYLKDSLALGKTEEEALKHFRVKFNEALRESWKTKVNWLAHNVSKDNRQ
T1 sequence (P27986 whole entry partner, species assumed): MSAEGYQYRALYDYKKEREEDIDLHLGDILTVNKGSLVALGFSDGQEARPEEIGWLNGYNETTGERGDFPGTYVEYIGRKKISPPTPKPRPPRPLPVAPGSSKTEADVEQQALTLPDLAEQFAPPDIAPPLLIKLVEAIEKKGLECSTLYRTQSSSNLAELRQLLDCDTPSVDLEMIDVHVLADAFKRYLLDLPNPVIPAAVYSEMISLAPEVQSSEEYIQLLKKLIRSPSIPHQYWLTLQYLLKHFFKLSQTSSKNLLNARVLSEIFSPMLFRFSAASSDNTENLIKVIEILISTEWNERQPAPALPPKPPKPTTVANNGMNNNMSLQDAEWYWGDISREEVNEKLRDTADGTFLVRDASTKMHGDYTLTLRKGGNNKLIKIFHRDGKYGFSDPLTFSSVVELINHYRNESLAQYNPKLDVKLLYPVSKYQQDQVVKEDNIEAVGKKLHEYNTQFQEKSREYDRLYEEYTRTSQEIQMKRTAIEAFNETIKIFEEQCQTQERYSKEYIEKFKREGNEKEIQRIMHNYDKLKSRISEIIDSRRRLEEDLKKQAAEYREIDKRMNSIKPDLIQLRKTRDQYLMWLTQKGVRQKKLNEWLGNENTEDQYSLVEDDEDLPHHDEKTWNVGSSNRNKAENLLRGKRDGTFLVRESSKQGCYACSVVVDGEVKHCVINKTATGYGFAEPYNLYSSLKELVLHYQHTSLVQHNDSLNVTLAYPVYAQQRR

As to `Cc1c(Cl)cc(C(C)Nc2ncnc3[nH]cnc23)c(OCCN2CCOCC2)c1-c1ccnn1C` (stereo not shown) [Example 152, N-{1-[5-chloro-4-methyl-3-(1-methyl-1H-pyrazol-5-yl)-2-(2-morpholin-4-ylethoxy)-phenyl]-ethyl}-9H-purin-6-amine], the negative-log IC50 (pIC50) is > 7.30.
As to `COc1ccc(-c2c(C)c(Cl)cc(C(C)Nc3ncnc4[nH]cnc34)c2OCCN2CCOCC2)cc1OC` (stereo not shown) [Example 153, N-{1-[5-chloro-3′,4′-dimethoxy-6-methyl-2-(2-mor-pholin-4-ylethoxy)-biphenyl-3-yl]ethyl}-9H-purin-6-amine], the pIC50 is > 7.30.
Consider `CNC(=O)c1ccc(-c2c(C)c(Cl)cc(C(C)Nc3ncnc4[nH]cnc34)c2OCCN2CCOCC2)cc1Cl` (stereo not shown) [Example 154], for which the pIC50 is > 7.30.
In the case of `Cc1c(Cl)cc(C(C)Nc2ncnc3[nH]cnc23)c(OCCN2CCOCC2)c1-c1cncc(C(=O)N2CCOCC2)c1` (stereo not shown) [Example 155, N-{1-[5-chloro-4-methyl-3-[5-(morpholin-4-ylcarbonyl)-pyridin-3-yl]-2-(2-morpholin-4-ylethoxy)-phenyl]-ethyl}-9H-purin-6-amine], the pIC50 is > 7.30.
The figure for `Cc1c(Cl)cc(C(C)Nc2ncnc3[nH]cnc23)c(OCCN2CCOCC2)c1-c1cncc(S(C)(=O)=O)c1` (stereo not shown) [Example 156, N-{1-[5-chloro-4-methyl-3-[5-(methyl-sulfonyl)-pyridin-3-yl]-2-(2-morpholin-4-ylethoxy)-phenyl]-ethyl}-9H-purin-6-amine] is > 7.30; for `COc1cncc(-c2c(C)c(Cl)cc(C(C)Nc3ncnc4[nH]cnc34)c2OCCN2CCOCC2)c1` (stereo not shown) [Example 157, N-{1-[5-chloro-3-(5-methoxy-pyridin-3-yl)-4-methyl-2-(2-mor-pholin-4-ylethoxy)-phenyl]-ethyl}-9H-purin-6-amine] it is > 7.30.
The result for `CC(=O)Nc1ccc(-c2c(C)c(Cl)cc(C(C)Nc3ncnc4[nH]cnc34)c2OCCN2CCOCC2)cn1` (stereo not shown) [Example 158, N-(5-{3-chloro-2-methyl-6-(2-morpholin-4-ylethoxy)-5-[1-(9H-purin-6-yl-amino)ethyl]-phenyl}-pyridin-2-yl)acetamide] reads > 7.30.
In the case of `Cc1c(Cl)cc(C(C)Nc2ncnc3[nH]cnc23)c(OCCN2CCOCC2)c1-c1cc(F)cc(C(N)=O)c1` (stereo not shown) [Example 159, 3′-chloro-5-fluoro-2′-methyl-6′-(2-morpholin-4-ylethoxy)-5′-[1-(9H-purin-6-yl-amino)ethyl]-biphenyl-3-carboxamide], the pIC50 is > 7.30.
As for `COc1ncc(-c2c(C)c(Cl)cc(C(C)Nc3ncnc4[nH]cnc34)c2OCCN2CCOCC2)cc1F` (stereo not shown) [Example 160, N-{1-[5-chloro-3-(5-fluoro-6-methoxy-pyridin-3-yl)-4-methyl-2-(2-mor-pholin-4-ylethoxy)-phenyl]-ethyl}-9H-purin-6-amine], the negative logarithm of the IC50 (pIC50) is > 7.30.
For `COc1ncc(-c2c(C)c(Cl)cc(C(C)Nc3ncnc4[nH]cnc34)c2OCCN2CCOCC2)cn1` (stereo not shown) [Example 161, N-{1-[5-chloro-3-(2-methoxy-pyrimidin-5-yl)-4-methyl-2-(2-morpholin-4-yl-ethoxy)-phenyl]-ethyl}-9H-purin-6-amine], the pIC50 is > 7.30.
The result for `Cc1c(Cl)cc(C(C)Nc2ncnc3[nH]cnc23)c(OCCN2CCOCC2)c1-c1cncc(F)c1` (stereo not shown) [Example 162, N-{1-[5-chloro-3-(5-fluoro-pyridin-3-yl)-4-methyl-2-(2-mor-pholin-4-ylethoxy)-phenyl]-ethyl}-9H-purin-6-amine] reads > 7.30.
Consider `COc1c(C(C)Nc2ncnc3[nH]cnc23)cc(Cl)c(C)c1-c1ccnnc1` (stereo not shown) [Example 163, N-[1-(5-Chloro-2-methoxy-4-methyl-3-pyridazin-4-ylphenyl)ethyl]-9H-purin-6-amine bis(trifluoroacetate)], for which the negative logarithm of the IC50 (pIC50) is > 7.30.
The figure for `COc1c(C(C)Nc2ncnc3[nH]cnc23)cc(Cl)c(C)c1-c1cscn1` (stereo not shown) [Example 164, N-{1-[5-Chloro-2-methoxy-4-methyl-3-(1,3-thiazol-4-yl)phenyl]ethyl}-9H-purin-6-amine trifluoroacetate] is > 7.30; for `COc1c(C(C)Nc2ncnc3[nH]cnc23)cc(Cl)c(C)c1C1CNC1` (stereo not shown) [Example 165, N-[1-(3-azetidin-3-yl-5-chloro-2-methoxy-4-methylphenyl)ethyl]-9H-purin-6-amine bis(trifluoroacetate)] it is > 7.30.
The result for `COC(=O)N1CC(c2c(C)c(Cl)cc(C(C)Nc3ncnc4[nH]cnc34)c2OC)C1` (stereo not shown) [Example 167, Methyl 3-{3-chloro-6-methoxy-2-methyl-5-[1-(9H-purin-6-ylamino)ethyl]phenyl}azetidine-1-carboxylate trifluoroacetate] reads > 7.30; that for `CNC(=O)N1CC(c2c(C)c(Cl)cc(C(C)Nc3ncnc4[nH]cnc34)c2OC)C1` (stereo not shown) [Example 168, 3-{3-Chloro-6-methoxy-2-methyl-5-[1-(9H-purin-6-ylamino)ethyl]phenyl}-N-methylazetidine-1-carboxamide trifluoroacetate], > 7.30; that for `COc1c(C(C)Nc2ncnc3[nH]cnc23)cc(Cl)c(C)c1C1CN(S(C)(=O)=O)C1` (stereo not shown) [Example 169, N-(1-{5-Chloro-2-methoxy-4-methyl-3-[1-(methylsulfonyl)azetidin-3-yl]phenyl}ethyl)-9H-purin-6-amine trifluoroacetate], > 7.30.
The result for `COc1c(C(C)Nc2ncnc3[nH]cnc23)cc(Cl)c(C)c1C1CN(C)C1` (stereo not shown) [Example 171, N-{1-[5-Chloro-2-methoxy-4-methyl-3-(1-methylazetidin-3-yl)phenyl]ethyl}-9H-purin-6-amine bis(trifluoroacetate)] reads > 7.30; that for `COc1c(C(C)Nc2ncnc3[nH]cnc23)cc(Cl)c(F)c1C1CN(C(C)C)C1` (stereo not shown) [Example 172, N-{1-[5-Chloro-4-fluoro-3-(1-isopropylazetidin-3-yl)-2-methoxyphenyl]ethyl}-9H-purin-6-amine bis(trifluoroacetate)], > 7.30.
With `CCOc1c(C(C)Nc2ncnc3[nH]cnc23)cc(Cl)c(C)c1C1CN(C)C1` (stereo not shown) [Example 173, N-{1-[5-chloro-2-ethoxy-4-methyl-3-(1-methylazetidin-3-yl)phenyl]ethyl}-9H-purin-6-amine], the negative-log IC50 (pIC50) was > 7.30.
The figure for `CNC(=O)c1cc(-c2c(C)c(Cl)cc(C(C)Nc3ncnc4[nH]cnc34)c2OC)cn1C` (stereo not shown) [Example 175, 4-{3-Chloro-6-methoxy-2-methyl-5-[1-(9H-purin-6-ylamino)ethyl]phenyl}-N,1-dimethyl-1H-pyrrole-2-carboxamide] is > 7.30; for `CCC(Nc1ncnc2[nH]cnc12)c1cc(Cl)c(C)c(-c2cncc(F)c2)c1OC` (stereo not shown) [Example 181, N-{1-[5-chloro-3-(5-fluoropyridin-3-yl)-2-methoxy-4-methylphenyl]propyl}-9H-purin-6-amine bis(2,2,2-trifluoroacetate)] it is > 7.30.
The result for `CCC(Nc1ncnc2[nH]cnc12)c1cc(Cl)c(C)c(-c2cncc(S(C)(=O)=O)c2)c1OC` (stereo not shown) [Example 182, N-(1-{5-chloro-2-methoxy-4-methyl-3-[5-(methylsulfonyl)pyridin-3-yl]phenyl}propyl)-9H-purin-6-amine bis(2,2,2-trifluoroacetate)] reads > 7.30; that for `COc1c(C(C)Nc2ncnc3[nH]cnc23)cc(Cl)c(C)c1-c1ccc(CO)nc1` (stereo not shown) [Example 183, (5-{3-chloro-6-methoxy-2-methyl-5-[1-(9H-purin-6-ylamino)ethyl]phenyl}pyridin-2-yl)methanol bis(2,2,2-trifluoroacetate)], > 7.30.
The figure for `COc1c(C(C)Nc2ncnc3[nH]cnc23)cc(Cl)c(C)c1-c1ccc(C(C)(C)O)nc1` (stereo not shown) [Example 184, 2-(5-{3-chloro-6-methoxy-2-methyl-5-[1-(9H-purin-6-ylamino)ethyl]phenyl}pyridin-2-yl)propan-2-ol bis(2,2,2-trifluoroacetate)] is > 7.30; for `COc1c(C(C)Nc2ncnc3[nH]cnc23)cc(Cl)c(C)c1-c1ccc(C(C)(C)OC)nc1` (stereo not shown) [Example 185, N-(1-{5-chloro-2-methoxy-3-[6-(1-methoxy-1-methylethyl)pyridin-3-yl]-4-methylphenyl}ethyl)-9H-purin-6-amine bis(2,2,2-trifluoroacetate)] it is > 7.30; for `CCOc1c(C(C)Nc2ncnc3[nH]cnc23)cc(C)c(C#N)c1-c1cncc(S(C)(=O)=O)c1` (stereo not shown) [Example 186, 3-ethoxy-6-methyl-2-[5-(methylsulfonyl)pyridin-3-yl]-4-[1-(9H-purin-6-ylamino)ethyl]benzonitrile bis(2,2,2-trifluoroacetate)] it is > 7.30.
For `COc1c(C(C)Nc2ncnc3[nH]cnc23)cc(Cl)c(F)c1CN1CCOCC1` (stereo not shown) [Example 188, N-{1-[5-Chloro-4-fluoro-2-methoxy-3-(morpholin-4-ylmethyl)phenyl]ethyl}-9H-purin-6-amine], the pIC50 was > 7.30.

The record behind these values is US9815839B2, “N-(1-(substituted-phenyl)ethyl)-9H-purin-6-amines as PI3K inhibitors” (Incyte Corporation, priority 2010, dated 2017).
